The values that follow come from ChEMBL document CHEMBL1255452, “Skin concentrations and pharmacokinetics of posaconazole after oral administration” (Antimicrob Agents Chemother, 2010).

Data set [1] has as its system Zone of skin. Nature of the data set: AUC (0 to 12 hrs) in high fat fed healthy human skin measured per gram of tissue at 400 mg, po bid after 8 days. To be noted: in vivo. The arrangement: time < 12 hr, dose 400 mg, route oral. It is filed as ADME, organism-based.
Data set [2] can be described thus: AUC (0 to 24 hrs) in high fat fed healthy human plasma measured per ml of plasma at 400 mg, po bid after 1 day. It is filed as ADME, organism-based. Also noted: time < 24 hr, dose 400 mg, route oral.
The nature of data set [3]: Cmax in high fat fed healthy human plasma at 400 mg, po bid after 1 day. It counts as ADME, organism-based. The arrangement: dose 400 mg, route oral.
The subject of data set [4] is Zone of skin. Nature of the data set: AUC (0 to 24 hrs) in high fat fed healthy human skin measured per gram of tissue at 400 mg, po bid after 8 days. It is filed as ADME, organism-based. Also noted: dose 400 mg, time < 24 hr, route oral. To be noted: in vivo.
A short description of data set [5]: AUC (0 to 12 hrs) in high fat fed healthy human plasma measured per ml of plasma at 400 mg, po bid after 8 days. It is filed as ADME, organism-based. Also noted: dose 400 mg, time < 12 hr, route oral.
Data set [6] in a line: T>MIC90 in fungus infected patient skin at 400 mg, po bid after 1 day. It counts as functional.
Data set [7] can be described thus: AUC (0 to 24 hrs) in high fat fed healthy human plasma measured per ml of plasma at 400 mg, po bid after 8 days. It counts as ADME, organism-based. Also noted: time < 24 hr, dose 400 mg, route oral.
Data set [8] has as its system Homo sapiens. The data set is described as follows: Toxicity in healthy human assessed as treatment related treatment-emergent adverse events at 400 mg, po bid after 8 days. It counts as organism-based. To be noted: in vivo, 192 h.
Data set [9] can be described thus: Cmax in high fat fed healthy human skin at 400 mg, po bid after 8 days. It counts as ADME, organism-based, Zone of skin. Also noted: dose 400 mg, route oral.
Data set [10] can be described thus: T>MIC90 in fungus infected patient plasma at 400 mg, po bid after 1 day. It counts as functional.
Data set [11] can be described thus: T>MIC90 in fungus infected patient skin at 400 mg, po bid after 8 days. It is filed as functional.
The nature of data set [12]: Tmax in high fat fed healthy human plasma at 400 mg, po bid after 1 day. It is filed as ADME, organism-based.
Data set [13] deals with Zone of skin. The data set is described as follows: AUC (0 to 24 hrs) in high fat fed healthy human skin measured per gram of tissue at 400 mg, po bid after 1 day. The arrangement: dose 400 mg, time < 24 hr, route oral. It is filed as ADME, organism-based. To be noted: in vivo.
The nature of data set [14]: Tmax in high fat fed healthy human skin at 400 mg, po bid after 8 days. It is filed as ADME, organism-based, Zone of skin.
Data set [15] in a line: AUC (0 to 12 hrs) in high fat fed healthy human plasma measured per ml of plasma at 400 mg, po bid after 1 day. It is filed as ADME, organism-based. The arrangement: dose 400 mg, time < 12 hr, route oral.
Data set [16] is described as follows: T>MIC90 in fungus infected patient plasma at 400 mg, po bid after 8 days. It counts as functional.
Data set [17] can be described thus: Ratio of AUC in skin to plasma in healthy human at 400 mg, po bid after 8 days. It counts as ADME, organism-based, Skin of body. To be noted: skin and plasma.
A short description of data set [18]: Cmax in high fat fed healthy human plasma at 400 mg, po bid after 8 days. It counts as ADME, organism-based. Also noted: dose 400 mg, route oral.
Data set [19] relates to Zone of skin. Nature of the data set: AUC (0 to 12 hrs) in high fat fed healthy human skin measured per gram of tissue at 400 mg, po bid after 1 day. It is filed as ADME, organism-based. Also noted: dose 400 mg, time < 12 hr, route oral. To be noted: in vivo.
Data set [20] can be described thus: Tmax in high fat fed healthy human skin at 400 mg, po bid after 1 day. It is filed as ADME, organism-based, Zone of skin.
Data set [21] is described as follows: Cmax in high fat fed healthy human skin at 400 mg, po bid after 1 day. It is filed as ADME, organism-based, Zone of skin. The arrangement: dose 400 mg, route oral.
The subject of data set [22] is Homo sapiens. Nature of the data set: Toxicity in healthy human assessed as treatment-emergent adverse events at 400 mg, po bid after 8 days. It is filed as organism-based. The settings on record: in vivo, 192 h.

Take `CC[C@@H]([C@H](C)O)n1ncn(-c2ccc(N3CCN(c4ccc(OC[C@@H]5CO[C@@](Cn6cncn6)(c6ccc(F)cc6F)C5)cc4)CC3)cc2)c1=O` [POSACONAZOLE]: the AUC in data set [1] was 23400 ng·h/g; in data set [4], 46800 ng·h/g; in data set [13], 3520 ng·h/g; in [19] it was 1760 ng·h/g. Further, the AUC at 24 h turned out to be 7260 ng·h/mL in [2] and 37200 ng·h/mL in data set [7]. In addition, the Cmax was 453 ng/mL in data set [3], 2610 ng/g in data set [9], 1740 ng/mL in data set [18] and 328 ng/g in [21]. Further, the AUC at 12 h amounted to 18600 ng·h/mL in [5] and 3630 ng·h/mL in [15]. Also, the “T>MIC90” value in data set [6] stood at 2.24 h; in data set [10], 8.13 h; in data set [11], 12 h; in data set [16], 12 h. The figures for the Activity in data set [8] and in data set [22] were 37% and 57%, respectively. Moreover, the figures for the Tmax in [12], in data set [14] and in data set [20] were 8 h, 3 h and 12 h, respectively. Also, in data set [17], the Kp at 192 h was 1.26.

Broadly, the Cmax is the highest concentration seen after dosing. One may read the Tmax as the time from dosing to the highest level. The Kp is the ratio of the level in a tissue or fluid to that in plasma or blood.
